Measured values as given in a compilation of properties of binary mixtures (doi:10.1016/j.molliq.2011.08.008).

Experiment: xn = mol fraction of the nth substance listed
Settings: 100 kPa

CCOCCOCCOCCO + CCCC[n+]1ccn(C)c1.F[P-](F)(F)(F)(F)F
speed of sound [m/s]
Settings | x2 = 0.0558 | x2 = 0.1123 | x2 = 0.2121 | x2 = 0.3079 | x2 = 0.4014 | x2 = 0.5002 | x2 = 0.6006 | x2 = 0.7035 | x2 = 0.8015 | x2 = 0.9075
288.15 K | – | 1474.2 | – | 1486.2 | 1487.1 | 1485 | 1481.8 | 1478.4 | 1469.4 | 1467.9
293.15 K | 1448.3 | 1457 | 1466.8 | 1470.5 | 1472.2 | 1470.8 | 1468.1 | – | – | –
298.15 K | 1430.9 | 1440 | 1450.5 | 1455 | 1457.3 | – | 1454.5 | 1452.5 | 1444.6 | –
303.15 K | 1414.1 | 1423.2 | 1434.3 | 1439.6 | 1442.5 | 1442.7 | 1441.2 | 1439.1 | – | 1431.2
308.15 K | 1397.3 | 1406.5 | 1418.1 | 1424.2 | 1427.7 | – | 1427.8 | 1426.1 | 1420.7 | 1419.5
313.15 K | – | – | 1402.2 | 1409 | 1413.1 | 1415 | 1414.5 | 1413.5 | – | 1408
318.15 K | 1363.8 | 1373.6 | 1386.2 | 1393.8 | 1398.8 | 1401.1 | 1401.5 | 1400.7 | 1397.8 | 1396.6
